For 6 compounds, Kd results are on record in BindingDB's records for doi:10.1021/jm060947x (Institut D'Investigacions Biomèdiques August Pi I, 2007).

Experiment [1] can be described thus: Displacement of [3H]SCH 23390 from dopamine D1 receptor in lamb striatum membrane after 1 hr.
Experiment [2] can be described thus: Displacement of [3H]YM 09151-2 from dopamine D2 receptor in lamb striatum membrane after 2 hrs. Background: Displacement assays read how much labelled ligand stays bound in the presence of the test substance.
A short description of experiment [3]: Displacement of [3H]R-PIA from adenosine A1 receptor in lamb striatum membrane after 1 hr.

Each structure is given as a SMILES string. pKd: −log10 of the molar value.

Consider `CN1C[C@H](C(=O)N[C@@H](Cc2ccc([N+](=O)[O-])cc2)C(=O)N[C@@H](Cc2ccc(F)cc2)C(=O)N2CCCC(C(N)=O)C2)C=C2c3cccc4[nH]cc(c34)C[C@H]21` (stereo partly drawn) [(6aR,9R)-N-((S)-1-((S)-1-(3-carbamoylpiperidin-1-yl)-3-(4-fluorophenyl)-1-oxopropan-2-ylamino)-3-(4-nitrophenyl)-1-oxopropan-2-yl)-7-methyl-4,6,6a,7,8,9-hexahydroindolo[4,3-fg]quinoline-9-carboxamide], for which the pKd – broadly, the Kd on a negative log10 scale, so that one unit is a factor of ten – was 6.15 in experiment [1] and 7.70 in experiment [2].
On to `CC(C)[C@H](NC(=O)[C@H](Cc1ccc([N+](=O)[O-])cc1)NC(=O)[C@@H]1C=C2c3cccc4[nH]cc(c34)C[C@H]2N(C)C1)C(=O)N1c2ccccc2C[C@H]1C(N)=O` [(6aR,9R)-N-((S)-1-((S)-1-((S)-2-carbamoylindolin-1-yl)-3-methyl-1-oxobutan-2-ylamino)-3-(4-nitrophenyl)-1-oxopropan-2-yl)-7-methyl-4,6,6a,7,8,9-hexahydroindolo[4,3-fg]quinoline-9-carboxamide], for which the values for the pKd in experiment [3] and in experiment [2] were 7.00 and 5.70, respectively.
`CC(C)[C@H](NC(=O)[C@@H]1C=C2c3cccc4[nH]cc(c34)C[C@H]2N(C)C1)C(=O)N[C@@H](Cc1ccc(F)cc1)C(=O)N1CCC[C@H]1C(N)=O` [(6aR,9R)-N-((S)-1-((S)-1-((S)-2-carbamoylpyrrolidin-1-yl)-3-(4-fluorophenyl)-1-oxopropan-2-ylamino)-3-methyl-1-oxobutan-2-yl)-7-methyl-4,6,6a,7,8,9-hexahydroindolo[4,3-fg]quinoline-9-carboxamide]: the pKd in experiment [1] is 6.22; in experiment [2] it was 4.80.
Take `CC(C)[C@H](NC(=O)[C@@H]1C=C2c3cccc4[nH]cc(c34)C[C@H]2N(C)C1)C(=O)N[C@@H](Cc1ccc([N+](=O)[O-])cc1)C(=O)N1CCC[C@H]1C(N)=O` [(6aR,9R)-N-((S)-1-((S)-1-((S)-2-carbamoylpyrrolidin-1-yl)-3-(4-nitrophenyl)-1-oxopropan-2-ylamino)-3-methyl-1-oxobutan-2-yl)-7-methyl-4,6,6a,7,8,9-hexahydroindolo[4,3-fg]quinoline-9-carboxamide]: in experiment [1], the negative logarithm of the Kd (pKd) is 5.11.
Still for that read-out and setting: next, `CC(C)[C@H](NC(=O)[C@H](CCC1CCCCC1)NC(=O)[C@@H]1C=C2c3cccc4[nH]cc(c34)C[C@H]2N(C)C1)C(=O)N1CCC[C@H]1C(N)=O` [(6aR,9R)-N-((S)-1-((S)-1-((S)-2-carbamoylpyrrolidin-1-yl)-3-methyl-1-oxobutan-2-ylamino)-4-cyclohexyl-1-oxobutan-2-yl)-7-methyl-4,6,6a,7,8,9-hexahydroindolo[4,3-fg]quinoline-9-carboxamide]: 5.92.
As to `CC(C)[C@H](NC(=O)[C@H]1C=C2c3cccc4[nH]cc(c34)C[C@H]2N(C)C1)C(=O)N[C@@H](Cc1ccc([N+](=O)[O-])cc1)C(=O)N1CCC[C@H]1C(N)=O` [(6aR,9S)-N-((S)-1-((S)-1-((S)-2-carbamoylpyrrolidin-1-yl)-3-(4-nitrophenyl)-1-oxopropan-2-ylamino)-3-methyl-1-oxobutan-2-yl)-7-methyl-4,6,6a,7,8,9-hexahydroindolo[4,3-fg]quinoline-9-carboxamide], the pKd in experiment [1] is 6.15.
